Measurements from the supplement of paper PMC10307832.

Tests used:
Test in all cases: relative viability (nuclei count vs DMSO), 5 days (fraction); higher = more cells survive
[1] = test system: NCI-H520
In short: (§1)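 Medians of duplicate plates are given as relative viability. That measure is the nuclei count in treated wells divided by the count in vehicle wells. Counts were taken on 4× images of lung cancer cell lines in 1536-well plates, 5 days after pin-tool dosing the day after seeding with one drug alone or a fixed anchor-drug dose plus five library-drug doses (not always all listed) in √10 steps.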

[2] = test system: NCI-H1299
In short: as §1

[3] = test system: NCI-H1703
In short: as §1

[4] = test system: A549
In short: as §1

[5] = test system: NCI-H2023
In short: as §1

[6] = test system: NCI-H727
In short: as §1

[7] = test system: EBC-1
In short: as §1

[8] = test system: IA-LM
In short: as §1

[9] = test system: Calu-6
In short: as §1

[10] = test system: NCI-H2170
In short: as §1

Cc1csc(=NC2CCCCC2)n1/N=C/c1ccc(O)c(O)c1O [MIM1] + CS(=O)(=O)N1CCN(Cc2cc3nc(-c4cccc5[nH]ncc45)nc(N4CCOCC4)c3s2)CC1 [Pictilisib] (partner 1 µM)
relative viability ([1]; first compound 0.2 µM): 0.302 | relative viability ([1]; first compound 0.6325 µM): 0.287 | relative viability ([1]; first compound 2 µM): 0.295 | relative viability ([1]; first compound 6.325 µM): 0.235 | relative viability ([1]; first compound 20 µM): 0.246 | relative viability ([2]; first compound 0.2 µM): 0.726 | relative viability ([2]; first compound 0.6325 µM): 0.791 | relative viability ([2]; first compound 2 µM): 0.765 | relative viability ([2]; first compound 6.325 µM): 0.535 | relative viability ([2]; first compound 20 µM): 0.354 | relative viability ([3]; first compound 0.2 µM): 0.219 | relative viability ([3]; first compound 0.6325 µM): 0.304 | relative viability ([3]; first compound 2 µM): 0.286 | relative viability ([3]; first compound 6.325 µM): 0.177 | relative viability ([3]; first compound 20 µM): 0.182 | relative viability ([4]; first compound 0.2 µM): 0.508 | relative viability ([4]; first compound 0.6325 µM): 0.565 | relative viability ([4]; first compound 2 µM): 0.636 | relative viability ([4]; first compound 6.325 µM): 0.15 | relative viability ([4]; first compound 20 µM): 0.0858 | relative viability ([5]; first compound 0.2 µM): 0.238 | relative viability ([5]; first compound 0.6325 µM): 0.26 | relative viability ([5]; first compound 2 µM): 0.226 | relative viability ([5]; first compound 6.325 µM): 0.126 | relative viability ([5]; first compound 20 µM): 0.067 | relative viability ([6]; first compound 0.2 µM): 0.415 | relative viability ([6]; first compound 0.6325 µM): 0.352 | relative viability ([6]; first compound 2 µM): 0.35 | relative viability ([6]; first compound 6.325 µM): 0.355 | relative viability ([6]; first compound 20 µM): 0.122 | relative viability ([7]; first compound 0.2 µM): 0.352 | relative viability ([7]; first compound 0.6325 µM): 0.384 | relative viability ([7]; first compound 2 µM): 0.355 | relative viability ([7]; first compound 6.325 µM): 0.253 | relative viability ([7]; first compound 20 µM): 0.191 | relative viability ([8]; first compound 0.2 µM): 0.36 | relative viability ([8]; first compound 0.6325 µM): 0.328 | relative viability ([8]; first compound 2 µM): 0.261 | relative viability ([8]; first compound 6.325 µM): 0.18 | relative viability ([8]; first compound 20 µM): 0.0832 | relative viability ([9]; first compound 0.2 µM): 0.909 | relative viability ([9]; first compound 0.6325 µM): 0.892 | relative viability ([9]; first compound 2 µM): 0.942 | relative viability ([9]; first compound 6.325 µM): 0.499 | relative viability ([9]; first compound 20 µM): 0.196 | relative viability ([10]; first compound 0.2 µM): 0.394 | relative viability ([10]; first compound 0.6325 µM): 0.28 | relative viability ([10]; first compound 2 µM): 0.321 | relative viability ([10]; first compound 6.325 µM): 0.272 | relative viability ([10]; first compound 20 µM): 0.238

Cc1cn(-c2cc(NC(=O)c3ccc(C)c(Nc4nccc(-c5cccnc5)n4)c3)cc(C(F)(F)F)c2)cn1 [Nilotinib] + CS(=O)(=O)N1CCN(Cc2cc3nc(-c4cccc5[nH]ncc45)nc(N4CCOCC4)c3s2)CC1 [Pictilisib] (partner 1 µM)
relative viability ([1]; first compound 0.001 µM): 0.283 | relative viability ([1]; first compound 0.01 µM): 0.296 | relative viability ([1]; first compound 0.03162 µM): 0.283 | relative viability ([1]; first compound 0.1 µM): 0.232 | relative viability ([2]; first compound 0.001 µM): 0.611 | relative viability ([2]; first compound 0.003162 µM): 1.12 | relative viability ([2]; first compound 0.01 µM): 0.887 | relative viability ([2]; first compound 0.03162 µM): 0.495 | relative viability ([2]; first compound 0.1 µM): 0.396 | relative viability ([3]; first compound 0.001 µM): 0.225 | relative viability ([3]; first compound 0.003162 µM): 0.291 | relative viability ([3]; first compound 0.01 µM): 0.19 | relative viability ([3]; first compound 0.03162 µM): 0.215 | relative viability ([3]; first compound 0.1 µM): 0.196 | relative viability ([4]; first compound 0.003162 µM): 0.743 | relative viability ([4]; first compound 0.01 µM): 0.6 | relative viability ([4]; first compound 0.03162 µM): 0.368 | relative viability ([4]; first compound 0.1 µM): 0.374 | relative viability ([5]; first compound 0.001 µM): 0.225 | relative viability ([5]; first compound 0.003162 µM): 0.192 | relative viability ([5]; first compound 0.01 µM): 0.226 | relative viability ([5]; first compound 0.03162 µM): 0.221 | relative viability ([5]; first compound 0.1 µM): 0.101 | relative viability ([6]; first compound 0.001 µM): 0.382 | relative viability ([6]; first compound 0.01 µM): 0.447 | relative viability ([6]; first compound 0.1 µM): 0.264 | relative viability ([7]; first compound 0.003162 µM): 0.287 | relative viability ([7]; first compound 0.01 µM): 0.313 | relative viability ([7]; first compound 0.03162 µM): 0.289 | relative viability ([7]; first compound 0.1 µM): 0.253 | relative viability ([8]; first compound 0.001 µM): 0.36 | relative viability ([8]; first compound 0.003162 µM): 0.431 | relative viability ([8]; first compound 0.01 µM): 0.426 | relative viability ([8]; first compound 0.03162 µM): 0.209 | relative viability ([8]; first compound 0.1 µM): 0.41 | relative viability ([9]; first compound 0.001 µM): 0.893 | relative viability ([9]; first compound 0.003162 µM): 0.919 | relative viability ([9]; first compound 0.01 µM): 1.06 | relative viability ([9]; first compound 0.03162 µM): 0.864 | relative viability ([9]; first compound 0.1 µM): 0.827 | relative viability ([10]; first compound 0.001 µM): 0.283 | relative viability ([10]; first compound 0.003162 µM): 0.306 | relative viability ([10]; first compound 0.01 µM): 0.296 | relative viability ([10]; first compound 0.03162 µM): 0.349 | relative viability ([10]; first compound 0.1 µM): 0.299
